The subject of this series is CCRIS mutagenicity, Ames/micronucleus/aberration tests. Briefly: CCRIS mutagenicity studies.
The mark [1] stands for this setting: Test System: AMES SALMONELLA TYPHIMURIUM, Strain/Indicator: TA100, Metabolic Activation: RAT, LIVER, S-9, PCB, Method: PREINCUBATION
The mark [2] stands for this setting: Test System: AMES SALMONELLA TYPHIMURIUM, Strain/Indicator: TA98, Metabolic Activation: NONE, Method: STANDARD PLATE.
Setting [3] is: Test System: AMES SALMONELLA TYPHIMURIUM, Strain/Indicator: TA98, Metabolic Activation: RAT, LIVER, S-9, AROCLOR 1254, Method: STANDARD PLATE.
[4] abbreviates: Test System: AMES SALMONELLA TYPHIMURIUM, Strain/Indicator: TA100, Metabolic Activation: NONE, Method: STANDARD PLATE.
The mark [5] stands for this setting: Test System: AMES SALMONELLA TYPHIMURIUM, Strain/Indicator: TA100, Metabolic Activation: RAT, LIVER, S-9, AROCLOR 1254, Method: STANDARD PLATE.
Where [6] appears, read: Test System: AMES SALMONELLA TYPHIMURIUM, Strain/Indicator: TA98, Metabolic Activation: NONE, Method: PREINCUBATION
Setting [7] is: Test System: AMES SALMONELLA TYPHIMURIUM, Strain/Indicator: TA100, Metabolic Activation: NONE, Method: PREINCUBATION

Active and inactive are the calls of the source. How the calls were made is not given here.

As for `CCN(Cc1cccc(S(=O)(=O)O)c1)c1ccc(C(=C2C=CC(=[N+](CC)Cc3cccc(S(=O)(=O)[O-])c3)C=C2)c2ccc(S(=O)(=O)O)cc2)cc1`, the mutagenic call runs as follows: (Test System: AMES SALMONELLA TYPHIMURIUM, Strain/Indicator: TA98, Metabolic Activation: HAMSTER, LIVER, S-9, AROCLOR 1254, Method: STANDARD PLATE) “active; positive”; (Test System: AMES SALMONELLA TYPHIMURIUM, Strain/Indicator: TA98, Metabolic Activation: HAMSTER, LIVER, S-9, Method: PREINCUBATION (PRIVAL METHOD)) “active; positive”; (Test System: AMES SALMONELLA TYPHIMURIUM, Strain/Indicator: TA100, Metabolic Activation: HAMSTER, LIVER, S-9, Method: PREINCUBATION (PRIVAL METHOD)) “active; positive”; (Test System: AMES SALMONELLA TYPHIMURIUM, Strain/Indicator: TA1538, Metabolic Activation: HAMSTER, LIVER, S-9, AROCLOR 1254, Method: STANDARD PLATE) “active; positive”; (Test System: Mouse lymphoma, Strain/Indicator: L5178Y (tk+/tk-), Metabolic Activation: None, Method: Suspension/plate) “active; positive”; (Test System: Mouse lymphoma, Strain/Indicator: L5178Y (tk+/tk-), Metabolic Activation: Rat, Liver, S-9, Aroclor 1254, Method: Suspension/plate) “inactive; negative”.

Turning to `CC(C)[C@](O)(C(=O)O)[C@@H](C)O`, the mutagenic call runs as follows: (Test System: AMES SALMONELLA TYPHIMURIUM, Strain/Indicator: TA100, Metabolic Activation: HAMSTER, LIVER, S-9, PCB, Method: PREINCUBATION) “inactive; negative”; under setting [1], “inactive; negative”.

As for `O=C(O)C1CCCN1` (configuration not stated), the mutagenic call (Test System: AMES SALMONELLA TYPHIMURIUM, Strain/Indicator: TA98, Metabolic Activation: RAT LIVER S-9, CHLOROPHENE, Method: STANDARD PLATE (COMPOUND HEATED AT 250 DEGREES CELSIUS FOR 20 MIN)) was “active; positive”.

Regarding `O=C(/C=C/c1ccc(-c2ccccc2)cc1)c1ccccc1`, the mutagenic call is, setting by setting: under setting [2], “inactive; negative”; under setting [3], “inactive; negative”; under setting [4], “inactive; negative”; under setting [5], “inactive; negative”.

Regarding `CCOC(=O)CC(=O)OCC`, the mutagenic call by setting is: (Test System: Ames Salmonella typhimurium, Strain/Indicator: TA98, Metabolic Activation: None, Method: Preincubation) “inactive; negative”; (Test System: Ames Salmonella typhimurium, Strain/Indicator: TA98, Metabolic Activation: Rat, Liver, S-9, Phenobarbital and 5,6-benzoflavone, Method: Preincubation) “inactive; negative”; (Test System: Ames Salmonella typhimurium, Strain/Indicator: TA100, Metabolic Activation: None, Method: Preincubation) “inactive; negative”; (Test System: Ames Salmonella typhimurium, Strain/Indicator: TA100, Metabolic Activation: Rat, Liver, S-9, Phenobarbital and 5,6-benzoflavone, Method: Preincubation) “inactive; negative”; (Test System: Ames Salmonella typhimurium, Strain/Indicator: TA1535, Metabolic Activation: None, Method: Preincubation) “inactive; negative”; (Test System: Ames Salmonella typhimurium, Strain/Indicator: TA1535, Metabolic Activation: Rat, Liver, S-9, Phenobarbital and 5,6-benzoflavone, Method: Preincubation) “inactive; negative”. In addition, the mutagenic call was “inactive; negative” (Test System: Ames Salmonella typhimurium, Strain/Indicator: TA1537, Metabolic Activation: None, Method: Preincubation); “inactive; negative” (Test System: Ames Salmonella typhimurium, Strain/Indicator: TA1537, Metabolic Activation: Rat, Liver, S-9, Phenobarbital and 5,6-benzoflavone, Method: Preincubation); “inactive; negative” (Test System: E. coli, Strain/Indicator: WP2uvrA/pKM101, Metabolic Activation: None, Method: Preincubation); “inactive; negative” (Test System: E. coli, Strain/Indicator: WP2uvrA/pKM101, Metabolic Activation: Rat, Liver, S-9, Phenobarbital and 5,6-benzoflavone, Method: Preincubation).

On to `CCN(CC)CCCC(C)Nc1cc(OC)cc2cccnc12` (configuration not stated), for which the mutagenic call runs as follows: (Test System: AMES SALMONELLA TYPHIMURIUM, Strain/Indicator: TA97, Metabolic Activation: NONE, Method: PREINCUBATION) “inactive; negative”; (Test System: AMES SALMONELLA TYPHIMURIUM, Strain/Indicator: TA97, Metabolic Activation: RAT, LIVER, S-9, PHENOBARBITAL AND BETA-NAPHTHOFLAVONE, Method: PREINCUBATION) “inactive; negative”; under setting [6], “active; positive”; (Test System: AMES SALMONELLA TYPHIMURIUM, Strain/Indicator: TA98, Metabolic Activation: RAT, LIVER, S-9, PHENOBARBITAL AND BETA-NAPHTHOFLAVONE, Method: PREINCUBATION) “inactive; negative”; under setting [7], “inactive; negative”; (Test System: AMES SALMONELLA TYPHIMURIUM, Strain/Indicator: TA100, Metabolic Activation: RAT, LIVER, S-9, PHENOBARBITAL AND BETA-NAPHTHOFLAVONE, Method: PREINCUBATION) “inactive; negative”. For the same compound, the mutagenic call reads like this: (Test System: AMES SALMONELLA TYPHIMURIUM, Strain/Indicator: TA102, Metabolic Activation: NONE, Method: PREINCUBATION) “inactive; negative”; (Test System: AMES SALMONELLA TYPHIMURIUM, Strain/Indicator: TA102, Metabolic Activation: RAT, LIVER, S-9, PHENOBARBITAL AND BETA-NAPHTHOFLAVONE, Method: PREINCUBATION) “inactive; negative”; (Test System: E.COLI, Strain/Indicator: WP2UVRA/PKM101, Metabolic Activation: NONE, Method: PREINCUBATION) “inactive; negative”; (Test System: E.COLI, Strain/Indicator: WP2UVRA/PKM101, Metabolic Activation: RAT LIVER S-9, PHENOBARBITAL AND 5,6-BENZOFLAVONE, Method: PREINCUBATION) “inactive; negative”.

With `O=[N+]([O-])c1ccc(/C=N\O)o1`, the mutagenic call is “active; positive” (Test System: E. COLI, Strain/Indicator: WP2 UVRA, Metabolic Activation: NONE, Method: SPOT) and “active; positive” (Test System: E. COLI, Strain/Indicator: WP2 UVRA, Metabolic Activation: NONE, Method: STANDARD PLATE).

For `CCC(=O)n1ncc(Cl)c(Cl)c1=O`, the mutagenic call is “inactive; negative” under setting [2]; “inactive; negative” under setting [3]; “inactive; negative” under setting [4]; “inactive; negative” under setting [5]; “inactive; negative” (Test System: AMES SALMONELLA TYPHIMURIUM, Strain/Indicator: TA1535, Metabolic Activation: NONE, Method: STANDARD PLATE); “inactive; negative” (Test System: AMES SALMONELLA TYPHIMURIUM, Strain/Indicator: TA1535, Metabolic Activation: RAT, LIVER, S-9, AROCLOR 1254, Method: STANDARD PLATE). For the same compound, the mutagenic call is, setting by setting: (Test System: AMES SALMONELLA TYPHIMURIUM, Strain/Indicator: TA1537, Metabolic Activation: NONE, Method: STANDARD PLATE) “inactive; negative”; (Test System: AMES SALMONELLA TYPHIMURIUM, Strain/Indicator: TA1537, Metabolic Activation: RAT, LIVER, S-9, AROCLOR 1254, Method: STANDARD PLATE) “inactive; negative”.

With `O=[N+]([O-])CBr`, the mutagenic call was “inactive; negative” (End Point: In vitro micronucleus, Test System: Human lymphoblastoid TK6 cells, Metabolic Activation: None); “inactive; negative” (End Point: In vitro micronucleus, Test System: Human peripheral blood lymphocytes, Metabolic Activation: None); “inactive; negative” (Test System: Ames Salmonella typhimurium, Strain/Indicator: RSJ100, Metabolic Activation: None, Method: Standard plate); “inactive; negative” (Test System: Ames Salmonella typhimurium, Strain/Indicator: RSJ100, Metabolic Activation: Rat, Liver, S-9, Aroclor, Method: Standard plate); “inactive; negative” (Test System: Ames Salmonella typhimurium, Strain/Indicator: TA98, Metabolic Activation: None, Method: Standard plate); “inactive; negative” (Test System: Ames Salmonella typhimurium, Strain/Indicator: TA98, Metabolic Activation: Rat, Liver, S-9, Aroclor, Method: Standard plate). In addition, the mutagenic call is, setting by setting: (Test System: Ames Salmonella typhimurium, Strain/Indicator: TA100, Metabolic Activation: None, Method: Standard plate) “active; positive”; (Test System: Ames Salmonella typhimurium, Strain/Indicator: TA100, Metabolic Activation: Rat, Liver, S-9, Aroclor, Method: Standard plate) “active; positive”; (Test System: Ames Salmonella typhimurium, Strain/Indicator: TA104, Metabolic Activation: None, Method: Standard plate) “inactive; negative”; (Test System: Ames Salmonella typhimurium, Strain/Indicator: TPT100, Metabolic Activation: None, Method: Standard plate) “inactive; negative”.

Regarding `NNc1nncc2ncccc12`, the mutagenic call is “active; positive” under setting [6]; “active; positive” (Test System: AMES SALMONELLA TYPHIMURIUM, Strain/Indicator: TA98, Metabolic Activation: RAT, LIVER, S-9, PCB, Method: PREINCUBATION); “active; positive” under setting [7]; “active; positive” under setting [1].

In the case of `Cc1cc2c(nc(N)n2C)c2ncc(-c3ccccc3)nc12`, the mutagenic call under setting [3] was “active; positive”.

In the case of `CP1(C)=NP(C)(C)=NP(C)(C)=N1`, the mutagenic call is, setting by setting: under setting [2], “inactive; negative”; under setting [3], “inactive; negative”; under setting [4], “inactive; negative”; under setting [5], “inactive; negative”.

The values are drawn from PubChem BioAssay AID1259407 (Chemical Carcinogenesis Research Information System (CCRIS), 2018).
